Key:
Wnt/β-catenin signal [1] = assay: Dual-luciferase reporter assay in colon cancer cells; assay type: cell-based; conditions: DLD-1, HCT 116, colo 205; 48 hours
Method: First, 3.34×10^4 colon cancer cells (DLD-1, HCT 116, or colo 205) were seeded on each well of a 24-well plate. After 24 hours, transfection was carried out by using 1 μL of lipofectamine 2000 (Invitrogen, Life Technologies Corp., Carlsbad, Calif.), 50 ng of pTCF4-CMVpro-FLuc, and 2.5 ng of pCMVpro-Rluc. After 48 hours from the low-molecular-weight compound treatment, 100 μL of 20% Passive Lysis Buffer (PROMEGA, Wisconsin, USA) was added to each well of a 24-well plate. The plate was shaken at ordinary temperature for 15 min and was then allowed to stand overnight at −30° C. On the following day, a Dual-Luciferase (a registered trademark) Reporter Assay System (PROMEGA) was used, and luciferase activity was then measured by using a MiniLumat LB 9506 (Berthold Technologies, Bad Wildbad, German).

Wnt/β-catenin signal [2] = assay: Dual-luciferase reporter assay in HSC2 cells; assay type: cell-based; conditions: 48 hours
Method: First, 5×10^4 of HSC2 cells were seeded on each well of a 24-well plate. After 24 hours, transfection was carried out by using 1 μL of lipofectamine 2000 (Invitrogen, Life Technologies Corp., Carlsbad, Calif.), 50 ng of pTCF4-CMVpro-FLuc, and 2.5 ng of pCMVpro-Rluc. After 48 hours from the low-molecular-weight compound treatment, 100 μL of 20% Passive Lysis Buffer (PROMEGA, Wisconsin, USA) was added to each well of the 24-well plate. The plate was shaken at ordinary temperature for 15 min and was then allowed to stand overnight at −30° C. On the following day, a Dual-Luciferase (a registered trademark) Reporter Assay System (PROMEGA) was used, and luciferase activity was then measured by using a MiniLumat LB 9506 (Berthold Technologies, Bad Wildbad, German).

liver fibrosis = assay: Liver disease model mice (carbon tetrachloride-induced liver fibrosis); assay type: in vivo, C57BL/6 male mice; conditions: IC-2 10.6 or 21.2 mg/kg intraperitoneally 3 times a week for 4 weeks, vs vehicle
Method: First, 7-week-old C57BL/6 male mice (Japan SLC, Shizuoka, Japan) were subject to 1-week preparatory rearing. Among them, healthy mice were used. The mice were housed in an animal cage at a room temperature of 22±1° C. and a humidity of 50±5% throughout the preparatory rearing and experimental period and were given ad libitum access to food and water.
A microsyringe (ITO CORPORATION, Shizuoka, Japan) was used to intraperitoneally administer carbon tetrachloride (CCl4: Wako Pure Chemical Industries, Ltd., Osaka, Japan) at 0.2 ml/kg, 3 times a week, for 4, 6, or 8 weeks. Carbon tetrachloride was dissolved into cone oil (Wako Pure Chemical Industries, Ltd.) at a concentration of 10%. The resulting solution was used. After this carbon tetrachloride solution was administered for 4 weeks, the mice were divided into a vehicle administration group, a glycyrrhizin administration group, an ICG-001 administration group, and an IC-2 administration group. Then, a microsyringe was used to intraperitoneally administer, 3 times a week for 4 weeks, carbon tetrachloride and a drug solution prepared in accordance with the following process. Note that the carbon tetrachloride and the drug solution were alternately administered with one-day interval.
Glycyrrhizin (TOKYO CHEMICAL INDUSTRY CO., LTD., Tokyo, Japan) was dissolved in physiological saline. The solution was prepared at a concentration of 30 mg/ml while the pH was adjusted to 7.0 with 4 M NaOH liquid. IC-2 and ICG-001 (AdooQ BioScience, California, USA) were each dissolved in a WellSolve (Celeste Corporation, Tokyo, Japan) at a concentration of 40 mg/ml and 10 mg/ml, respectively. Next, the mixture was heated for 10 min in a hot water bath at 60° C. and was then completely dissolved. A 9-fold volume of physiological saline was added to the WellSolve solution in which the above drugs had each been dissolved. […] Note that an IC-2 dosage was determined on the basis of an effective concentration in vitro. […]

SMILES: O=C1[C@H](Cc2ccccc2)N2C(=O)CCN(C(=O)NCc3ccccc3)[C@H]2CN1Cc1cccc2ccccc12 [IC-2]
- inhibitory effect on a Wnt/β-catenin signal in the colon cancer cells (Wnt/β-catenin signal [1]): exerted an inhibitory effect
- inhibitory effect on a Wnt/β-catenin signal in the squamous cell carcinoma cells (Wnt/β-catenin signal [2]): exerted an inhibitory effect
- fibrosis area (Sirius red staining) (liver fibrosis): a decrease in the fibrosis area was detected
- content of hydroxyproline (liver fibrosis; glycyrrhizin 150 mg/kg): a large decrease was observed

— patent US11213527B2, “Inhibitory effect of low molecular weight compound on cancer and fibrosis” (NATIONAL UNIVERSITY CORPORATION TOTTORI UNIVERSITY, priority 2014, dated 2022)
